In brackets after ≈: the same amount, converted by molar mass.
Tests used:
Assay in all cases: Antimicrobial activity (MIC)
Assay type in all cases: cell-based
Cutibacterium acnes = conditions: Cutibacterium acnes, DSM1897; Strain ID DSM 1897; potato dextrose broth pH 3.8; read-out: Minimal Inhibitory Concentration (MIC)
[1] = tested on: Leuconostoc mesenteroides ssp. mesenteroides; conditions: Leuconostoc mesenteroides, DSM20343; Strain ID DSM 20343; potato dextrose broth pH 3.8; read-out: Minimal Inhibitory Concentration (MIC)
Corynebacterium xerosis = conditions: Corynebacterium xerosis, DSM20743; Strain ID DSM 20743; potato dextrose broth pH 3.8; read-out: Minimal Inhibitory Concentration (MIC)
Byssochlamys fulva = conditions: Paecilomyces fulvus, DSM1808; Strain ID DSM 1808; potato dextrose broth pH 3.8; read-out: Minimal Inhibitory Concentration (MIC)
Porphyromonas gingivalis = conditions: Porphyromonas gingivalis, DSM20709; Strain ID DSM 20709; potato dextrose broth pH 3.8; read-out: Minimal Inhibitory Concentration (MIC)
[2] = tested on: Brettanomyces naardenensis; conditions: Brettanomyces naardenensis, CBS6115; Strain ID CBS 6115; potato dextrose broth pH 3.8; read-out: Minimal Inhibitory Concentration (MIC)
Malassezia furfur = conditions: Malassezia furfur, DSM6170; Strain ID DSM 6170; potato dextrose broth pH 3.8; read-out: Minimal Inhibitory Concentration (MIC)
[3] = tested on: Phanerochaete chrysosporium; conditions: Phanerodontia chrysosporium, DSM1556; Strain ID DSM 1556; potato dextrose broth pH 3.8; read-out: Minimal Inhibitory Concentration (MIC)
Actinomyces viscosus = conditions: Actinomyces viscosus; Strain ID DSM43798; potato dextrose broth pH 3.8; read-out: Minimal Inhibitory Concentration (MIC)
Bacillus licheniformis = conditions: Bacillus licheniformis, DSM13; Strain ID DSM 13; potato dextrose broth pH 3.8; read-out: Minimal Inhibitory Concentration (MIC)
Pseudomonas aeruginosa = conditions: Pseudomonas aeruginosa, DSM1117; Strain ID DSM 1117; potato dextrose broth pH 3.8; read-out: Minimal Inhibitory Concentration (MIC)
Listeria monocytogenes = conditions: Listeria monocytogenes, DSM20600; Strain ID DSM 20600; potato dextrose broth pH 3.8; read-out: Minimal Inhibitory Concentration (MIC)
Clostridium sporogenes = conditions: Clostridium sporogenes, ATCC19404; Strain ID ATCC 19404; potato dextrose broth pH 3.8; read-out: Minimal Inhibitory Concentration (MIC)

`C[C@@H]1O[C@@H](O[C@H]2[C@H](O[C@H]3CC[C@@]4(C)[C@@H](CC[C@]5(C)[C@@H]4CC=C4[C@@H]6CC(C)(C)CC[C@]6(C(=O)O)CC[C@]45C)[C@]3(C)CO)OC[C@H](O)[C@@H]2O)[C@H](O)[C@H](O[C@@H]2OC[C@@H](O)[C@H](O)[C@H]2O)[C@H]1O` [A, Sapindoside B [30994-75-3]] gave an MIC (Cutibacterium acnes) greater than 80 µg/mL, an MIC [1] greater than 80 µg/mL and an MIC (Corynebacterium xerosis) greater than 80 µg/mL. The MIC (Byssochlamys fulva) was greater than 80 µg/mL, the MIC (Porphyromonas gingivalis) was greater than 80 µg/mL and the MIC [2] was greater than 80 µg/mL. For the same molecule, the MIC (Malassezia furfur) was greater than 80 µg/mL, the MIC [3] was greater than 80 µg/mL and the MIC (Actinomyces viscosus) was greater than 80 µg/mL. It also gave an MIC (Bacillus licheniformis) greater than 80 µg/mL, an MIC (Pseudomonas aeruginosa) greater than 80 µg/mL and an MIC (Listeria monocytogenes) greater than 80 µg/mL. It also gave an MIC (Clostridium sporogenes) of 80 µg/mL (≈ 90.6 µM).

— patent publication EP4316461A1, “A PRESERVATIVE COMPOSITION” (BRAIN Biotech AG, priority 2022, dated 2024)
